Assay results reported in ChEMBL document CHEMBL4706561, “Efficient chemoenzymatic synthesis of fluorinated sialyl Thomsen-Friedenreich antigens and investigation of their characteristics” (Eur J Med Chem, 2020).

Biological target: T1, Sialidase (Clostridium perfringens, UniProt P10481)
T1 sequence (P10481 whole entry): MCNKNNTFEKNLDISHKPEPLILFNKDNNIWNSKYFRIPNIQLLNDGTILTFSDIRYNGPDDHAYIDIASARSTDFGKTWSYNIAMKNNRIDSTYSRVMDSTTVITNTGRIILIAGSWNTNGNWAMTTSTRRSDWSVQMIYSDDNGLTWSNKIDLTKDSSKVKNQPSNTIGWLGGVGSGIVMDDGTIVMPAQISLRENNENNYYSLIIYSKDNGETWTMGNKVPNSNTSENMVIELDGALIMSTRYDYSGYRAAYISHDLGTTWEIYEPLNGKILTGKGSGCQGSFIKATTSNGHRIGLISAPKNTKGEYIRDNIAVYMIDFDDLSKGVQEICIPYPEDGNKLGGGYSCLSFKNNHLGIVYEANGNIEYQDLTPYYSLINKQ
Assay: Stability in D2O assessed as Clostridium perfringens sialidase-mediated hydrolysis by measuring betaKdn formation at 10 mM measured after 12 hrs by 1H NMR spectroscopy
Assay type: ADME
Conditions: 10000 µM

## CC(=O)N[C@H]1[C@@H](OCCCN=[N+]=[N-])O[C@H](CO)[C@H](O)[C@@H]1O[C@@H]1O[C@H](CF)[C@H](O)[C@H](O[C@]2(C(=O)O)C[C@H](O)[C@@H](O)[C@H]([C@H](O)[C@H](O)CO)O2)[C@H]1O
  Drug metabolism: Metabolite_Notdetected
